Test results reported in PubChem BioAssay (NCI).
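1) Cells in 96-well plates. 2) Compound, 48 h, 5 concentrations. 3) Linear interpolation between surrounding doses. 4) Unreached endpoint = highest concentration. The concentration for 50% growth inhibition is given as GI50. TGI denotes the concentration required for complete inhibition of growth.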

Legend:
Assay in all cases: NCI anticancer screen, dose series, 48 h
PC-3 prostate = test system: PC-3 prostate
HCC-2998 colon = test system: HCC-2998 colon
CCRF-CEM leukemia = test system: CCRF-CEM leukemia
MOLT-4 leukemia = test system: MOLT-4 leukemia
786-0 renal = test system: 786-0 renal
SNB-75 CNS = test system: SNB-75 CNS
NCI-H522 lung = test system: NCI-H522 lung
UACC-257 melanoma = test system: UACC-257 melanoma
SK-MEL-28 melanoma = test system: SK-MEL-28 melanoma
ACHN renal = test system: ACHN renal
RPMI-8226 leukemia = test system: RPMI-8226 leukemia
DU-145 prostate = test system: DU-145 prostate
U251 CNS = test system: U251 CNS
SN12C renal = test system: SN12C renal
HT29 colon = test system: HT29 colon
SR leukemia = test system: SR leukemia
UO-31 renal = test system: UO-31 renal
T-47D breast = test system: T-47D breast
A549 NSCLC = test system: A549 NSCLC
NCI/ADR-RES ovarian = test system: NCI/ADR-RES ovarian
NCI-H23 lung = test system: NCI-H23 lung
BT-549 breast = test system: BT-549 breast
SF-268 CNS = test system: SF-268 CNS
MDA-MB-231 breast = test system: MDA-MB-231 breast
NCI-H460 lung = test system: NCI-H460 lung
IGROV1 ovarian = test system: IGROV1 ovarian
HCT-15 colon = test system: HCT-15 colon
EKVX NSCLC = test system: EKVX NSCLC
SK-MEL-5 melanoma = test system: SK-MEL-5 melanoma
OVCAR-8 ovarian = test system: OVCAR-8 ovarian
SK-MEL-2 melanoma = test system: SK-MEL-2 melanoma
NCI-H226 lung = test system: NCI-H226 lung
TK-10 renal = test system: TK-10 renal
SK-OV-3 ovarian = test system: SK-OV-3 ovarian
MALME-3M melanoma = test system: MALME-3M melanoma
OVCAR-5 ovarian = test system: OVCAR-5 ovarian
A498 renal = test system: A498 renal
SW-620 colon = test system: SW-620 colon
HOP-62 NSCLC = test system: HOP-62 NSCLC
SF-539 CNS = test system: SF-539 CNS
K-562 leukemia = test system: K-562 leukemia
KM12 colon = test system: KM12 colon
UACC-62 melanoma = test system: UACC-62 melanoma
HL-60(TB) leukemia = test system: HL-60(TB) leukemia

SMILES: Nc1cc(N)c2nc(-c3ccccc3)c(NCCc3ccc(Cl)c(Cl)c3)nc2c1
- GI50 (PC-3 prostate): 1.01 µM
- TGI (PC-3 prostate): 4.29 µM
- GI50 (HCC-2998 colon): 5.78 µM
- TGI (HCC-2998 colon): 19.7 µM
- GI50 (CCRF-CEM leukemia): 2.77 µM
- TGI (CCRF-CEM leukemia): 12.3 µM
- GI50 (MOLT-4 leukemia): 1.14 µM
- TGI (MOLT-4 leukemia): 9.32 µM
- GI50 (786-0 renal): 3.13 µM
- TGI (786-0 renal): 21.1 µM
- GI50 (SNB-75 CNS): 6.18 µM
- TGI (SNB-75 CNS): 33.4 µM
- GI50 (NCI-H522 lung): 2.11 µM
- TGI (NCI-H522 lung): 4.98 µM
- GI50 (UACC-257 melanoma): 2.06 µM
- TGI (UACC-257 melanoma): 4.52 µM
- GI50 (SK-MEL-28 melanoma): 2.13 µM
- TGI (SK-MEL-28 melanoma): 5.88 µM
- GI50 (ACHN renal): 3.31 µM
- TGI (ACHN renal): 12.4 µM
- GI50 (RPMI-8226 leukemia): 0.924 µM
- TGI (RPMI-8226 leukemia): 2.91 µM
- GI50 (DU-145 prostate): 1.63 µM
- TGI (DU-145 prostate): 3.63 µM
- GI50 (U251 CNS): 2.03 µM
- TGI (U251 CNS): 5.32 µM
- GI50 (SN12C renal): 1.75 µM
- TGI (SN12C renal): 3.37 µM
- GI50 (HT29 colon): 3.4 µM
- TGI (HT29 colon): 13.2 µM
- GI50 (SR leukemia): 1.66 µM
- TGI (SR leukemia): 7.61 µM
- GI50 (UO-31 renal): 1.93 µM
- TGI (UO-31 renal): 3.97 µM
- GI50 (T-47D breast): 1.8 µM
- TGI (T-47D breast): 5.94 µM
- GI50 (A549 NSCLC): 12.6 µM
- TGI (A549 NSCLC): 33.1 µM
- GI50 (NCI/ADR-RES ovarian): 3.62 µM
- TGI (NCI/ADR-RES ovarian): 18.8 µM
- GI50 (NCI-H23 lung): 2.81 µM
- TGI (NCI-H23 lung): 13.3 µM
- GI50 (BT-549 breast): 1.56 µM
- TGI (BT-549 breast): 13.8 µM
- GI50 (SF-268 CNS): 2.85 µM
- TGI (SF-268 CNS): 12.9 µM
- GI50 (MDA-MB-231 breast): 1.3 µM
- TGI (MDA-MB-231 breast): 3.89 µM
- GI50 (NCI-H460 lung): 3.21 µM
- TGI (NCI-H460 lung): 14.1 µM
- GI50 (IGROV1 ovarian): 3.38 µM
- TGI (IGROV1 ovarian): 15.9 µM
- GI50 (HCT-15 colon): 4.64 µM
- TGI (HCT-15 colon): 20 µM
- GI50 (EKVX NSCLC): 3.16 µM
- TGI (EKVX NSCLC): 16.2 µM
- GI50 (SK-MEL-5 melanoma): 2.32 µM
- TGI (SK-MEL-5 melanoma): 7.52 µM
- GI50 (OVCAR-8 ovarian): 2.41 µM
- TGI (OVCAR-8 ovarian): 6.02 µM
- GI50 (SK-MEL-2 melanoma): 10.3 µM
- TGI (SK-MEL-2 melanoma): 22.4 µM
- GI50 (NCI-H226 lung): 16.5 µM
- TGI (NCI-H226 lung): 33.3 µM
- GI50 (TK-10 renal): 4.78 µM
- TGI (TK-10 renal): 17.5 µM
- GI50 (SK-OV-3 ovarian): 12.3 µM
- TGI (SK-OV-3 ovarian): 24.7 µM
- GI50 (MALME-3M melanoma): 1.85 µM
- TGI (MALME-3M melanoma): 4.5 µM
- GI50 (OVCAR-5 ovarian): 1.81 µM
- TGI (OVCAR-5 ovarian): 4.75 µM
- GI50 (A498 renal): 11.3 µM
- TGI (A498 renal): 23.4 µM
- GI50 (SW-620 colon): 1.64 µM
- TGI (SW-620 colon): 2.99 µM
- GI50 (HOP-62 NSCLC): 3.92 µM
- TGI (HOP-62 NSCLC): 39.8 µM
- GI50 (SF-539 CNS): 2.22 µM
- TGI (SF-539 CNS): 10.9 µM
- GI50 (K-562 leukemia): 1.87 µM
- TGI (K-562 leukemia): 5.29 µM
- GI50 (KM12 colon): 2.63 µM
- TGI (KM12 colon): 10.5 µM
- GI50 (UACC-62 melanoma): 2.5 µM
- TGI (UACC-62 melanoma): 7.97 µM
- GI50 (HL-60(TB) leukemia): 2.07 µM
- TGI (HL-60(TB) leukemia): 5.27 µM
